How the values were obtained:
[1] = TH17 cell viability (Prestoblue); assay type: cell-based; design: concentration or dose not given beside the values; settings: human; percentage of DMSO treated cells; read-out: % viability of compound treated TH17 cells
Method: (§1) Peripheral blood mononuclear cells (PBMCs) were sourced from freshly prepared leukocyte enriched plasma (buffy coat) from healthy volunteers from which PBMCs were isolated by density gradient centrifugation using Ficoll-Paque™ PLUS (GE Healthcare). Naïve CD4+ T cells were isolated using the Naïve CD4+ T cell Isolation Kit II (Miltenyi Biotec) as per manufacturer's instructions. CD4+ T cells were plated at 5×10^4 cells/well in 96 well plates pre-coated with immobilized human (h)-αCD3 antibody (eBioscience) then differentiated to TH17 cells using h-αCD28, h-αIFNγ, h-αIL4, h-IL6, h-IL23, h-IL1β, h-TGFβ1 (eBioscience) and maintained in a cell culture incubator at 37° C. with 5% CO2 in TexMACS Medium (Miltenyi Biotec) supplemented with 1% Penicillin/Streptomycin (Lonza) over 5 days.
Cells were assayed for viability in the presence or absence of compound using Prestoblue® Cell Viability Reagent (Life Technologies) as per manufacturer's instructions after 30 minutes incubation of TH17 cells with reagent. Absorbance was measured at 570 nm and 600 nm using a microplate reader (Perkin Elmer) and data were analyzed as per manufacturer's instructions. Cell viability was expressed as a percentage of DMSO treated cells.

[2] = target: T1, RORα LBD (Homo sapiens (Human), UniProt P35398); assay: TR-FRET co-repressor NCoR1-D2 interaction with RORα LBD; assay type: biochemical
Excerpt: (§2) The Time-Resolved Fluorescence Resonance Energy Transfer (TR-FRET) assay kit (Life Technologies) was used to measure compound efficacy to disrupt or enhance ligand-mediated interaction of the co-activator and co-repressor peptides with the purified GST-tagged (i) RORγ LBD or (ii) […]. The RORγ LBD and RORα LBD each have a basal level of interaction with the co-activator D22 or co-repressor NCoR1-D2 in the absence of ligand, thus it is possible to identify compounds that inhibit or induce RORγ and/or RORα co-activator/co-repressor interactions, thus determining RORα, RORγ, or RORα/RORγ compound selectivity. The assay was performed as per manufacturer's instructions and TR-FRET was assessed 2 and 20 hours post-assay initiation. Compounds were identified to (i) have no impact on either co-activator displacement or […] from the assessed LBD (ii) promote co-activator displacement from the assessed LBD (iii) promote co-repressor recruitment to the assessed LBD or (iv) concurrently promote co-activator displacement from the assessed LBD and co-repressor recruitment to the assessed LBD.

[3] = test system: IL-17AF; assay: TH17 cytokine inhibition as measured by ELISA: IL-17AF; assay type: cell-based; settings: 120 h; human TH17 cells, 5 days differentiation, ELISA of supernatant
Method: as §1
(§3) Human CD4+ T cells were differentiated to TH17 cells as described in the presence or absence of various concentrations of compounds in a final concentration of 0.1% DMSO in TexMACS medium. Supernatants were collected and stored at −20° C. until they were to be assayed for IL-17A, IL-17F, IL-17AF, IL-21 and/or IL-22 levels as determined by Ready-Set-Go ELISA kits (eBioscience) as per manufacturer's instructions. Endpoint absorbance was read at 450 nm and 570 nm according to manufacturer's instructions (eBioscience) using a microplate reader (Perkin Elmer). The percentage of cytokine inhibition was calculated with reference to DMSO treated cells and the IC50s were determined by GraphPad Prism software and presented in the table below.

[4] = target: T2, RORγ LBD (Homo sapiens (Human), UniProt P51449); assay: TR-FRET co-activator D22 interaction with RORγ LBD; assay type: biochemical
Excerpt: as §2

[5] = test system: IL-17F; assay: TH17 cytokine inhibition as measured by ELISA: IL-17F; assay type: cell-based; settings: 120 h; human TH17 cells, 5 days differentiation, ELISA of supernatant
Method: as §1, §3

[6] = target: T1, RORα LBD; assay: TR-FRET co-activator D22 interaction with RORα LBD; assay type: biochemical
Excerpt: as §2

[7] = target: T2, RORγ LBD; assay: RORγ LBD binding (Human RORγ Assay System, INDIGO Biosciences); settings: 0.5% DMSO
Method: Compound binding to the human RORγ LBD was assessed using the Human RORγ Assay System (INDIGO Biosciences Inc.) as per manufacturer's instructions.

[8] = test system: IL-17A; assay: TH17 cytokine inhibition as measured by ELISA: IL-17A; assay type: cell-based; settings: 120 h; human TH17 cells, 5 days differentiation, ELISA of supernatant
Method: as §1, §3

[9] = target: T2, RORγ LBD; assay: TR-FRET co-repressor NCoR1-D2 interaction with RORγ LBD; assay type: biochemical
Excerpt: as §2

[10] = test system: TH17 cells; assay: TH17 cellular proliferation (Prestoblue); assay type: cell-based; settings: Homo sapiens, 120 h; 3 μM compound, after 5 day TH17 differentiation, relative to DMSO treated TH17 cells; read-out: % change in TH17 cell number
Method: as §1
Cellular proliferation was assessed in the presence or absence of 3 μM compound using Prestoblue® Cell Viability Reagent (Life Technologies) as per manufacturer's instructions using absorbance as the output measured by a microplate reader (Perkin Elmer) after 30 minutes of incubation of cells and reagent. A standard curve developed by plotting varying cell numbers versus absorbance was used to assess differences in cellular proliferation between compound treated or untreated cells after the 5 day TH17 differentiation period.

[11] = test system: IL-22; assay: TH17 cytokine inhibition as measured by ELISA: IL-22; assay type: cell-based; settings: 120 h; human TH17 cells, 5 days differentiation, ELISA of supernatant
Method: as §1, §3

[12] = test system: IL-21; assay: Real-time qRT-PCR in TH17 cells: IL-21 gene expression; assay type: cell-based, human; design: key: A: No change in gene expression observed relative to DMSO treated Th17 cells; B: Decreased gene expression observed relative to DMSO treated Th17 cells; C: Increased gene expression observed relative to DMSO treated Th17 cells
Method: as §1
(§4) RNA was isolated from TH17 cells and cDNA was synthesized using the Verso cDNA kit (Thermo Scientific) as per manufacturer's instructions. IL-17A, IL-17F, IL-21, IL-22, G-CSF, IL-23R and FOXP3 gene expression were determined for compound treated and untreated TH17 cell samples using Solaris qPCR Gene expression assays (Thermo Scientific) with an iCycler iQ Real-Time PCR Detection System (Bio-Rad). Individual gene expression was normalized to a panel of six reference genes (ACTB, TBP, HPRT1, PGK1, TFRC and PPIA) (Thermo Scientific) and analyzed by REST 2009 (Qiagen) in accordance to MIQE guidelines (Bustin et al. (2009) Clin. Chem, 55:611-622). The effects of compounds on TH17 cytokine mRNA levels are presented as fold change in gene expression of compound treated TH17 cells relative to DMSO treated cells in the table below.

[13] = test system: IL-23R; assay: Real-time qRT-PCR in TH17 cells: IL-23R gene expression; assay type: cell-based, human; design: key: A: No change in gene expression observed relative to DMSO treated Th17 cells; B: Decreased gene expression observed relative to DMSO treated Th17 cells; C: Increased gene expression observed relative to DMSO treated Th17 cells
Method: as §1, §4

[14] = test system: IL-22; assay: Real-time qRT-PCR in TH17 cells: IL-22 gene expression; assay type: cell-based, human; design: key: A: No change in gene expression observed relative to DMSO treated Th17 cells; B: Decreased gene expression observed relative to DMSO treated Th17 cells; C: Increased gene expression observed relative to DMSO treated Th17 cells
Method: as §1, §4

[15] = test system: FOXP3; assay: Real-time qRT-PCR in TH17 cells: FOXP3 gene expression; assay type: cell-based, human; design: key: A: No change in gene expression observed relative to DMSO treated Th17 cells; B: Decreased gene expression observed relative to DMSO treated Th17 cells; C: Increased gene expression observed relative to DMSO treated Th17 cells
Method: as §1, §4

[16] = test system: IL-17F; assay: Real-time qRT-PCR in TH17 cells: IL-17F gene expression; assay type: cell-based, human; design: key: A: No change in gene expression observed relative to DMSO treated Th17 cells; B: Decreased gene expression observed relative to DMSO treated Th17 cells; C: Increased gene expression observed relative to DMSO treated Th17 cells
Method: as §1, §4

[17] = test system: IL-17A; assay: Real-time qRT-PCR in TH17 cells: IL-17A gene expression; assay type: cell-based, human; design: key: A: No change in gene expression observed relative to DMSO treated Th17 cells; B: Decreased gene expression observed relative to DMSO treated Th17 cells; C: Increased gene expression observed relative to DMSO treated Th17 cells
Method: as §1, §4

[18] = 2 hr, read-out: RORα EC50 NCoR1-D2 co-repressor recruitment 2 hr
[19] = 20 hr, read-out: RORα EC50 NCoR1-D2 co-repressor recruitment 20 hr
[20] = 2 hr, read-out: RORγ EC50 D22 co-activator displacement 2 hr
[21] = 20 hr, read-out: RORγ EC50 D22 co-activator displacement 20 hr
[22] = 2 hr, read-out: RORα EC50 D22 co-activator displacement 2 hr
[23] = 20 hr, read-out: RORα EC50 D22 co-activator displacement 20 hr
[24] = 2 hr, read-out: RORγ EC50 NCoR1-D2 co-repressor recruitment 2 hr
[25] = 20 hr, read-out: RORγ EC50 NCoR1-D2 co-repressor recruitment 20 hr

T2 sequence (P51449 269-508): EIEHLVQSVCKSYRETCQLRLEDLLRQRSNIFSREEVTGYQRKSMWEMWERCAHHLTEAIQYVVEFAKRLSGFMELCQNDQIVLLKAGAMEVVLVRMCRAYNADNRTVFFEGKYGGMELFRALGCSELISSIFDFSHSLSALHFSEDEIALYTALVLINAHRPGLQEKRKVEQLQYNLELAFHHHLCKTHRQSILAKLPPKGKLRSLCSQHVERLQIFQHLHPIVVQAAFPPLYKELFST
T1 sequence (P35398 272-510): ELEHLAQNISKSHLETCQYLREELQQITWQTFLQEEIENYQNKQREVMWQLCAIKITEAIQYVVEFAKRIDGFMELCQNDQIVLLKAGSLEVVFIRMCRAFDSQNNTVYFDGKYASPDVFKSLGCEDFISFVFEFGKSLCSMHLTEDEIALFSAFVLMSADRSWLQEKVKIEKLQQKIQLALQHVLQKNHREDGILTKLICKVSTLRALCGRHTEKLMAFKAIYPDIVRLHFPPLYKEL

| SMILES | viability [1] [%] | EC50 [2, 18] [µM] | EC50 [2, 19] [µM] | EC50 [4, 20] [µM] | EC50 [4, 21] [µM] | IC50 [5] [µM] | EC50 [6, 22] [µM] | EC50 [6, 23] [µM] | IC50 [8] [µM] | EC50 [9, 24] [µM] | EC50 [9, 25] [µM] | inhibition at 3 µM [10] [%] | also measured |
| --- | --- | --- | --- | --- | --- | --- | --- | --- | --- | --- | --- | --- | --- |
| CC(=O)Nc1ccc2c(c1)CCC(=O)N2Cc1ccc(C(O)(C(F)(F)F)C(F)(F)F)cc1 [Example 3, N-(1-(4-(1,1,1,3,3,3-hexafluoro-2-hydroxypropan-2-yl)benzyl)-2-oxo-1,2,3,4-tetrahydroquinolin-6-yl)acetamide] | > 80 | > 30 | > 30 | > 30 | < 30 | < 10 | > 30 | > 30 | < 10 | > 30 | < 30 | ≤ 50 | IC50 [3]: > 10 µM; IC50 [7]: > 10 µM |
| CS(=O)(=O)Nc1ccc2c(c1)CCC(=O)N2Cc1ccc(C(O)(C(F)(F)F)C(F)(F)F)cc1 [Example 6, N-(1-(4-(1,1,1,3,3,3-hexafluoro-2-hydroxypropan-2-yl)benzyl)-2-oxo-1,2,3,4-tetrahydroquinolin-6-yl)methanesulfonamide] | > 80 | > 30 | > 30 | > 30 | > 30 | < 10 | < 30 | < 30 | < 10 | < 30 | > 30 | ≤ 50 | IC50 [11]: < 10 µM; Fold change in mRNA level of compound treated TH17 cells relative to DMSO treated cells IL-21 [12]: A; Fold change in mRNA level of compound treated TH17 cells relative to DMSO treated cells IL-23R [13]: A; Fold change in mRNA level of compound treated TH17 cells relative to DMSO treated cells IL-22 [14]: A; Fold change in mRNA level of compound treated TH17 cells relative to DMSO treated cells FOXP3 [15]: A; Fold change in mRNA level of compound treated TH17 cells relative to DMSO treated cells IL-17F [16]: B; Fold change in mRNA level of compound treated TH17 cells relative to DMSO treated cells IL-17A [17]: A |
